pIC50: −log10 of the molar value. Read-outs that look alike come from different tables or passages of the source.
Legend:
recombinant human CK2 = recombinant human CK2 (Homo sapiens (Human), UniProt P68400); assay: CK2 assay (cell-free, 33P-ATP filter plate); type: biochemical; conditions: for inhibition at 10 µM: read-out: CK2 % inhib @ 10 uM; for inhibition at 0.5 µM: 500 nM compound, cell-free assay, read-out: CK2: % inh 500 nM; for inhibition at 5 µM: read-out: CK2 % inhibition 5 uM, 5 uM
recombinant human PIM1 = recombinant human PIM1 (Homo sapiens (Human), UniProt P11309); assay: PIM-1 kinase activity in cell-free in vitro assay; type: biochemical; conditions: for inhibition at 0.5 µM: read-out: PIM-1: % inh 500 nM
[1] = test system: HCT-116 human colorectal carcinoma cells; assay: Cell-proliferation assay using Alamar Blue dye; type: cell-based;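 note: cells exposed to compound for about 4 days, then Alamar Blue added and dye fluorescence read after about 4 h, compared with medium-only control wells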
[2] = 500 nM compound, cell-free assay
[3] = read-out: CK2 % inhibition 1.0 uM, 1.0 uM
[4] = Homo sapiens, HCT-116, HCT-116, first column, read-out: HCT-116 (uM), cell proliferation modulatory activity
[5] = Homo sapiens, HCT-116, HCT-116, second column, read-out: HCT-116 (uM), cell proliferation modulatory activity
[6] = Homo sapiens, HCT-116, read-out: HCT-116 (uM), cell proliferation modulatory activity, HCT-116, second column
[7] = Homo sapiens, HCT-116, read-out: HCT-116 (uM), cell proliferation modulatory activity, HCT-116, second HCT-116 column (c8)

Chain of recombinant human CK2 (P68400 whole entry): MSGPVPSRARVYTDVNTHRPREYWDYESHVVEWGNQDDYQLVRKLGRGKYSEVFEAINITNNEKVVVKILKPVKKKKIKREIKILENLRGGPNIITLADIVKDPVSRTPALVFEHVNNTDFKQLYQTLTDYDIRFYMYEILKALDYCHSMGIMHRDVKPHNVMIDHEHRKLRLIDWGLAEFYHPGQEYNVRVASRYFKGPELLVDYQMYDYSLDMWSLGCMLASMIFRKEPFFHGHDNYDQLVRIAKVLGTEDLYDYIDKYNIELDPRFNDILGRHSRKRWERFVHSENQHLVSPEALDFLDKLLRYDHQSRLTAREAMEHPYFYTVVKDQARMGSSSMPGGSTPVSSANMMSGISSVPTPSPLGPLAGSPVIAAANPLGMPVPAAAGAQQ
Chain of recombinant human CK2 (P67870 whole entry partner): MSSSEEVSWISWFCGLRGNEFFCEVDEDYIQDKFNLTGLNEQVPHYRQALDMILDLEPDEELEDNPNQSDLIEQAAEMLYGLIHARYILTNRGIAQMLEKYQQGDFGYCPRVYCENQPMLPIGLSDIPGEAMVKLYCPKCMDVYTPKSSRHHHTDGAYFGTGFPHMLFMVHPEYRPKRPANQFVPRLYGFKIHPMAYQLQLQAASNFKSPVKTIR
Chain of recombinant human PIM1 (P11309 whole entry): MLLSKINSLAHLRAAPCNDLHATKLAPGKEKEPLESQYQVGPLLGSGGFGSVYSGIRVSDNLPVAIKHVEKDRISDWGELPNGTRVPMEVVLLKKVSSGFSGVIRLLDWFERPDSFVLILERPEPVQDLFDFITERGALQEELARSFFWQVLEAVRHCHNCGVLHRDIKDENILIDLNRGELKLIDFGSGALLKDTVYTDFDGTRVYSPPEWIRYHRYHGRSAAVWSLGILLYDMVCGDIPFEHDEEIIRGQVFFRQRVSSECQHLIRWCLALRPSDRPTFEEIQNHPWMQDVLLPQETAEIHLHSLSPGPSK

O=c1[nH]c2ccccc2c2sccc12
inhibition at 10 µM (recombinant human CK2): 0%

COC(=O)c1ccc2c(c1)[nH]c(=O)c1ccsc12
inhibition at 10 µM (recombinant human CK2): 17%

O=C(O)c1ccc2c(c1)[nH]c(=O)c1cc(Br)sc12
inhibition at 10 µM (recombinant human CK2): 5%

CC(C)(C)OC(=O)CCNC(=O)c1ccc2c(c1)[nH]c(=O)c1ccsc12
inhibition at 10 µM (recombinant human CK2): 8%

COC(=O)CNC(=O)c1ccc2c(c1)[nH]c(=O)c1ccsc12
inhibition at 10 µM (recombinant human CK2): 10%

O=C(O)CCNC(=O)c1ccc2c(c1)[nH]c(=O)c1ccsc12
inhibition at 10 µM (recombinant human CK2): 16%

O=C(O)CNC(=O)c1ccc2c(c1)[nH]c(=O)c1ccsc12
inhibition at 10 µM (recombinant human CK2): 12%

O=C(Nc1nccs1)c1ccc2c(c1)[nH]c(=O)c1ccsc12
inhibition at 10 µM (recombinant human CK2): 10%

O=C(Nc1cccnc1)c1ccc2c(c1)[nH]c(=O)c1ccsc12
inhibition at 10 µM (recombinant human CK2): -9%

O=C(Nc1ccc(Cl)cc1)c1ccc2c(c1)[nH]c(=O)c1ccsc12
inhibition at 10 µM (recombinant human CK2): -10%

O=C(NCCc1cnc[nH]1)c1ccc2c(c1)[nH]c(=O)c1ccsc12
inhibition at 10 µM (recombinant human CK2): 7%

O=C(NCCN1CCOCC1)c1ccc2c(c1)[nH]c(=O)c1ccsc12
inhibition at 10 µM (recombinant human CK2): -9%

O=C(c1ccc2c(c1)[nH]c(=O)c1ccsc12)N1CCOCC1
inhibition at 10 µM (recombinant human CK2): 2%

CCCNC(=O)c1ccc2c(c1)[nH]c(=O)c1ccsc12
inhibition at 10 µM (recombinant human CK2): -34%

O=C(NCCc1ccccn1)c1ccc2c(c1)[nH]c(=O)c1ccsc12
inhibition at 10 µM (recombinant human CK2): -24%

COCCNC(=O)c1ccc2c(c1)[nH]c(=O)c1ccsc12
inhibition at 10 µM (recombinant human CK2): -19%

COc1ccc(CCNC(=O)c2ccc3c(c2)[nH]c(=O)c2ccsc23)cc1OC
inhibition at 10 µM (recombinant human CK2): -22%

CN(C)C(=O)c1ccc2c(c1)[nH]c(=O)c1ccsc12
inhibition at 10 µM (recombinant human CK2): 3%

CC(=O)N1CCN(C(=O)c2ccc3c(c2)[nH]c(=O)c2ccsc23)CC1
inhibition at 10 µM (recombinant human CK2): 7%

O=C(NC1CC1)c1ccc2c(c1)[nH]c(=O)c1ccsc12
inhibition at 10 µM (recombinant human CK2): 0%

CC(C)(C)OC(=O)N1CCN(C(=O)c2ccc3c(c2)[nH]c(=O)c2ccsc23)CC1
inhibition at 10 µM (recombinant human CK2): -25%

COc1ccccc1CNC(=O)c1ccc2c(c1)[nH]c(=O)c1ccsc12
inhibition at 10 µM (recombinant human CK2): 8%

Cc1cc(CNC(=O)c2ccc3c(c2)[nH]c(=O)c2ccsc23)no1
inhibition at 10 µM (recombinant human CK2): -13%

COc1ccc(CNC(=O)c2ccc3c(c2)[nH]c(=O)c2ccsc23)cc1
inhibition at 10 µM (recombinant human CK2): 1%

O=C(NCc1ccccn1)c1ccc2c(c1)[nH]c(=O)c1ccsc12
inhibition at 10 µM (recombinant human CK2): 3%

O=C(NCCc1ccccc1)c1ccc2c(c1)[nH]c(=O)c1ccsc12
inhibition at 10 µM (recombinant human CK2): 1%

O=C(NCc1ccncc1)c1ccc2c(c1)[nH]c(=O)c1ccsc12
inhibition at 10 µM (recombinant human CK2): -13%

O=C(NCc1cccnc1)c1ccc2c(c1)[nH]c(=O)c1ccsc12
inhibition at 10 µM (recombinant human CK2): -24%

O=C(Nc1ccc(CN2CCS(=O)(=O)CC2)cc1)c1ccc2c(c1)[nH]c(=O)c1ccsc12
inhibition at 10 µM (recombinant human CK2): -1%

O=C(c1ccc2c(c1)[nH]c(=O)c1ccsc12)N1CCNCC1
inhibition at 10 µM (recombinant human CK2): -27%

NC1CCN(C(=O)c2ccc3c(c2)[nH]c(=O)c2ccsc23)CC1
inhibition at 10 µM (recombinant human CK2): -3%

O=C(Nc1ccccc1C(=O)O)c1ccc2c(c1)[nH]c(=O)c1ccsc12
inhibition at 10 µM (recombinant human CK2): 41%

NC(=O)c1ccc2c(c1)[nH]c(=O)c1ccsc12
inhibition at 10 µM (recombinant human CK2): -14%

O=c1[nH]c2cc(CO)ccc2c2sccc12
inhibition at 10 µM (recombinant human CK2): 3%

N#Cc1ccc2c(c1)[nH]c(=O)c1ccsc12
inhibition at 10 µM (recombinant human CK2): -5%

CN1CCCCC1CNc1nc2cc(C#N)ccc2c2cscc12 (stereo not drawn)
inhibition at 0.5 µM (recombinant human PIM1; [2]): 46.4%
inhibition at 0.5 µM (recombinant human CK2): 24.6%

CN(C)CCNc1nc2cc(C#N)ccc2c2cscc12
inhibition at 0.5 µM (recombinant human PIM1; [2]): 20%
inhibition at 0.5 µM (recombinant human CK2): 23.4%

O=c1[nH]c2cc(-c3nnn[nH]3)ccc2c2cnccc12 [drawing 568]
inhibition at 1 µM (recombinant human CK2; at 1 μM, read-out: CK2 Inhibition): 46%

N#Cc1ccc2c(c1)nc(Cl)c1ccsc12 [drawing 587]
inhibition at 5 µM (recombinant human CK2): 63%

c1ccc(Nc2nc3ccccc3c3sccc23)cc1 [drawing 588]
inhibition at 5 µM (recombinant human CK2): 0%

CN(C)CCNc1nc2ccccc2c2sccc12 [drawing 589]
inhibition at 5 µM (recombinant human CK2): 0%

O=C(O)c1ccc2c(c1)nc(N1CCOCC1)c1ccsc12 [drawing 590]
inhibition at 5 µM (recombinant human CK2): 28%

CN(C)CCNc1nc2cc(C#N)ccc2c2sccc12 [drawing 612]
inhibition at 1 µM (recombinant human CK2; [3]): 0%

N#Cc1ccc2c(c1)nc(Nc1ccccc1)c1ccsc12 [drawing 614]
inhibition at 1 µM (recombinant human CK2; [3]): 0%

NC(=O)c1ccc2c(c1)nc(Nc1ccccc1)c1ccsc12 [drawing 615]
inhibition at 1 µM (recombinant human CK2; [3]): 0%

O=c1[nH]c(-c2ccc3c(c2)nc(Nc2ccccc2)c2ccsc23)no1 [drawing 617]
inhibition at 1 µM (recombinant human CK2; [3]): 0%

O=C(NCc1ccccc1)c1ccc2c(c1)[nH]c(=O)c1ccsc12 [drawing 671]
CK2 % inhib @ 10 uM (recombinant human CK2): 14%

O=C(NCc1ccccc1)c1ccc2c(c1)[nH]c(=O)c1ccsc12 [drawing 672]
CK2 % inhib @ 10 uM (recombinant human CK2): −1%

COC(=O)c1ccccc1NC(=O)c1ccc2c(c1)[nH]c(=O)c1ccsc12 [drawing 673]
CK2 % inhib @ 10 uM (recombinant human CK2): 5%

COC(=O)c1ccccc1NC(=O)c1ccc2c(c1)[nH]c(=O)c1ccsc12 [drawing 674]
CK2 % inhib @ 10 uM (recombinant human CK2): −16%

CC(C)(C)OC(=O)NC1CCN(C(=O)c2ccc3c(c2)[nH]c(=O)c2ccsc23)CC1 [drawing 676]
CK2 % inhib @ 10 uM (recombinant human CK2): 10%

CC(C)(C)OC(=O)NC1CCN(C(=O)c2ccc3c(c2)[nH]c(=O)c2ccsc23)CC1 [drawing 677]
CK2 % inhib @ 10 uM (recombinant human CK2): 1%

N#Cc1ccc2c(c1)nc(Cl)c1ccsc12 [drawing 1398]
inhibition at 0.5 µM (recombinant human PIM1; 500 nM compound, cell-free): -20.2%
IC50 [1, 4]: 10 µM

c1ccc(Nc2nc3ccccc3c3sccc23)cc1 [drawing 1399]
inhibition at 0.5 µM (recombinant human PIM1; 500 nM compound, cell-free): -22%
IC50 [1, 4]: 10 µM

CN(C)CCNc1nc2ccccc2c2sccc12 [drawing 1400]
inhibition at 0.5 µM (recombinant human PIM1; 500 nM compound, cell-free): -24.2%
IC50 [1, 4]: 2.3 µM

O=C(O)c1ccc2c(c1)nc(N1CCOCC1)c1ccsc12 [drawing 1401]
inhibition at 0.5 µM (recombinant human PIM1; 500 nM compound, cell-free): 35.7%
IC50 [1, 4]: 10 µM

CN(C)CCNc1nc2cc(C#N)ccc2c2sccc12 [drawing 1429]
inhibition at 0.5 µM (recombinant human PIM1; 500 nM compound, cell-free): -3.84%
IC50 [1, 4]: 0.4 µM

N#Cc1ccc2c(c1)nc(Nc1ccccc1)c1ccsc12 [drawing 1431]
inhibition at 0.5 µM (recombinant human PIM1; 500 nM compound, cell-free): -22.3%
IC50 [1, 4]: 10 µM

NC(=O)c1ccc2c(c1)nc(Nc1ccccc1)c1ccsc12 [drawing 1432]
inhibition at 0.5 µM (recombinant human PIM1; 500 nM compound, cell-free): -38.1%
IC50 [1, 5]: 8.7 µM

O=c1[nH]c(-c2ccc3c(c2)nc(Nc2ccccc2)c2ccsc23)no1 [drawing 1434]
inhibition at 0.5 µM (recombinant human PIM1; 500 nM compound, cell-free): 5.78%
IC50 [1, 5]: 10 µM

O=c1[nH]c2cc(-c3nnn[nH]3)ccc2c2cnccc12 [drawing 1444]
inhibition at 0.5 µM (recombinant human PIM1; 500 nM compound, cell-free): 3.3%
IC50 [1, 5]: 15 µM

Cc1cc(CNC(=O)c2cccc(Nc3nc4cc(-c5nnn[nH]5)ccc4c4sccc34)c2)no1 [drawing 1507]
inhibition at 0.5 µM (recombinant human PIM1; 500 nM compound, cell-free): 37.6%
IC50 [1, 6]: > 10 µM

Cc1cc(CNC(=O)c2cccc(Nc3nc4cc(-c5nnn[nH]5)ccc4c4sccc34)c2)no1 [drawing 1508]
PIM-1: % inh 500 nM (recombinant human PIM1; 500 nM compound, cell-free): 55.402%
pIC50 (recombinant human PIM1; cell-free): 6.24
IC50 ([1]; read-out: HCT-116 (uM), cell proliferation modulatory activity, HCT-116): > 10 µM

O=C(O)c1ccc2c(c1)nc(NCCc1ccccc1)c1ccncc12 [drawing 1511]
inhibition at 0.5 µM (recombinant human PIM1; 500 nM compound, cell-free): 80.9%
pIC50 (recombinant human PIM1; cell-free): 6.27
IC50 [1, 6]: > 10 µM

O=C(O)c1ccc2c(c1)nc(NCc1ccccc1)c1ccncc12 [drawing 1557]
inhibition at 0.5 µM (recombinant human PIM1; 500 nM compound, cell-free): 44.4%
pIC50 (recombinant human PIM1; cell-free): 6.17
IC50 [1, 6]: > 10 µM

CCOc1ncc2c(n1)c(NC1CC1)nc1cc(C(=O)O)ccc12 [drawing 1615]
inhibition at 0.5 µM (recombinant human PIM1; [2]): 11.1%
IC50 [1, 7]: > 10 µM

O=C(O)c1ccc2c(c1)nc(NCc1cccnc1)c1nc(NC3CC3)ncc12 [drawing 1625]
inhibition at 0.5 µM (recombinant human PIM1; [2]): 26.9%
IC50 [1, 7]: > 10 µM

O=C(O)c1ccc2c(c1)nc(NCc1ccccc1)c1nc(NC3CC3)ncc12 [drawing 1626]
inhibition at 0.5 µM (recombinant human PIM1; [2]): 25.3%
IC50 [1, 7]: > 10 µM

Cc1cc(Nc2ncc3c(n2)c(Nc2ccc(F)c(Cl)c2)nc2cc(C(=O)O)ccc23)[nH]n1 [drawing 1635]
inhibition at 0.5 µM (recombinant human PIM1; [2]): 66.1%
IC50 [1, 7]: > 10 µM

O=C(O)c1ccc2c(c1)nc(NC1CC1)c1ccncc12 [drawing 1639]
inhibition at 0.5 µM (recombinant human PIM1; [2]): 28.1%
IC50 [1, 7]: > 10 µM

Nc1ncc2c(n1)c(NC1CC1)nc1cc(C(=O)O)ccc12 [drawing 1644]
inhibition at 0.5 µM (recombinant human PIM1; [2]): 60.1%
pIC50 (recombinant human PIM1; cell-free assay): 6.36
IC50 [1, 7]: > 10 µM

— patent US8168651B2, “Protein kinase modulators” (Cylene Pharmaceuticals, Inc., priority 2008, dated 2012)
